Experimental data published in publication PMC5798451 (European journal of medicinal chemistry, 2017).
Where two headings read alike, the source gives them in different places.

Legend:
HeLa cells [1] = test: Apoptosis assay annexin-V-FITC/PI, HeLa; assay type: cell-based, human; settings: for induction of apoptosis: 24 or 48 h, annexin-V-FITC/PI
HeLa = settings: cited from earlier work
A549 [2] = settings: cited from earlier work
HT-29 = settings: cited from earlier work
RS4; 11 = settings: cited from earlier work
Jurkat = settings: cited from earlier work
HeLa cells [3] = test: Flow cytometric analysis of cell cycle distribution; assay type: cell-based, human; settings: 24 h treatment, PI flow cytometry
A549 [4] = test: Apoptosis assay annexin-V-FITC/PI, A549; assay type: cell-based, human; settings: A549, 24 or 48 h
HeLa cells [5] = test: Mitochondrial membrane potential; assay type: cell-based, human; settings: 0.1–1.0 µM, 6-48 h, JC-1
HeLa cells [6] = test: ROS production; assay type: cell-based, human; settings: 1 µM, starting at 12–24 h, H2-DCFDA
HeLa cells [7] = test: Western blot analysis of cell cycle and apoptosis proteins; assay type: cell-based, human
[8] = system: panel of 7 human tumor cell lines (HeLa, A549, HT-29, MDA-MB-231, RS4; 11, Jurkat, and Kasumi-1); test: MTT antiproliferative assay, panel of 7 human tumor cell lines; assay type: cell-based; settings: read-out: GI50s
bovine brain tubulin = bovine brain tubulin (Bos taurus, UniProt P81947+Q6B856); settings: read-out: Inhibition of tubulin assembly IC50 ± SD; tubulin at 10 µM; ref [4]; cited from earlier work
Chain of bovine brain tubulin (Q6B856 whole entry): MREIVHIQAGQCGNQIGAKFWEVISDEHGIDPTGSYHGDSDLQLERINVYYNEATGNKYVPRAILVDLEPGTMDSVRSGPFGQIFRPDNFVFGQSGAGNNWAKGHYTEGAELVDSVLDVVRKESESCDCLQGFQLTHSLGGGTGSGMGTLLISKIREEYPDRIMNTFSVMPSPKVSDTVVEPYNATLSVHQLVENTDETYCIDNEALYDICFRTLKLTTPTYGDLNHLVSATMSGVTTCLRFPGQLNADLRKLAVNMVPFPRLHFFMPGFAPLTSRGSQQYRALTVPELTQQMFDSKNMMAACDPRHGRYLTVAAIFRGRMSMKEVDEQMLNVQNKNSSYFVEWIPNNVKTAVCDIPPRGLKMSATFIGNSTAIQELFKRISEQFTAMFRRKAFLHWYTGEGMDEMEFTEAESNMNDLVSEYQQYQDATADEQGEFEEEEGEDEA
Chain of bovine brain tubulin (P81947 whole entry): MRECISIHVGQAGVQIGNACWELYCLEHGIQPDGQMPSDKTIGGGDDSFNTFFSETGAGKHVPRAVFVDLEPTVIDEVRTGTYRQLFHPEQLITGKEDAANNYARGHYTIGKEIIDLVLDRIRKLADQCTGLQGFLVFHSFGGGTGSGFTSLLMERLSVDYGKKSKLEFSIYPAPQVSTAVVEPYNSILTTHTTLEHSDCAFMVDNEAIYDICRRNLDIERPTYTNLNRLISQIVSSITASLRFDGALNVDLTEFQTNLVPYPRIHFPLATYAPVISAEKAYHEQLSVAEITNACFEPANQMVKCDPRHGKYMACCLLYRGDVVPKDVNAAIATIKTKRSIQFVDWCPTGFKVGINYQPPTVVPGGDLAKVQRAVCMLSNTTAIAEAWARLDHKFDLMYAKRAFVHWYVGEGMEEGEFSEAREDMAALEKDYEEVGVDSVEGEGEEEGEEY

tubulin = tubulin (Bos taurus, UniProt P81947+Q6B856); settings: tubulin 1 µM, [3H]colchicine 5 µM; ref [4]; cited from earlier work
Chain of tubulin (Q6B856 whole entry): as the sequence (Q6B856 whole entry) above
Chain of tubulin (P81947 whole entry): as the sequence (P81947 whole entry) above

SMILES: COc1ccc(/C=C\c2cc(OC)c(OC)c(OC)c2)cc1O [CA-4, combretastatin A-4]
- apoptotic response (HeLa cells [1]; 0.1 µM): strong apoptotic response
- GI50 (HeLa; ref [8] and [20]): 4 ± 1 nM
- GI50 (A549 [2]; ref [8] and [20]): 180 ± 50 nM
- GI50 (HT-29; ref [8] and [20]): 3100 ± 100 nM
- GI50 (RS4; 11; ref [8] and [20]): 0.8 ± 0.2 nM
- GI50 (Jurkat; ref [8] and [20]): 5 ± 0.6 nM

SMILES: CCn1ccc2c3c(=O)cc(-c4cccc5ccccc45)[nH]c3ccc21 [Compound 21, 3-ethyl-7-(naphthalen-1-yl)-3H-pyrrolo[3,2-f]quinolin-9(6H)-one]
- effect on cell cycle progression (HeLa cells [3]): induced a G2/M arrest
- induction of apoptosis (HeLa cells [1]): induced apoptosis in a time and concentration dependent manner
- induction of apoptosis (A549 [4]): induced apoptosis in a time and concentration dependent manner

SMILES: CCn1ccc2c3c(=O)cc(-c4ccc5c(c4)CCCC5)[nH]c3ccc21 [Compound 23, 3-ethyl-7-(1,2,3,4-tetrahydronaphthalen-6-yl)-3H-pyrrolo[3,2-f]quinolin-9(6H)-one]
- effect on cell cycle progression (HeLa cells [3]): induced a G2/M arrest
- induction of apoptosis (HeLa cells [1]): induced apoptosis in a time and concentration dependent manner
- induction of apoptosis (A549 [4]): induced apoptosis in a time and concentration dependent manner

SMILES: CCn1ccc2c3c(=O)cc(-c4ccc5c(c4)OCO5)[nH]c3ccc21 [Compound 24, 7-(benzo[d][1,3]dioxol-5-yl)-3-ethyl-3H-pyrrolo[3,2-f]quinolin-9(6H)-one]
- effect on cell cycle progression (HeLa cells [3]): induced a G2/M arrest
- induction of apoptosis (HeLa cells [1]): induced apoptosis in a time and concentration dependent manner
- induction of apoptosis (A549 [4]): induced apoptosis in a time and concentration dependent manner
- mitochondrial transmembrane potential (Δψmt) (HeLa cells [5]): time-dependent increase in the percentage of cells with low Δψmt
- ROS production (HeLa cells [6]): induced significant production of ROS
- expression of anti-apoptotic proteins Bcl-2 and Mcl-1 (HeLa cells [7]; immunoblot, 50 nM): reduced the expression
- PARP cleavage (HeLa cells [7]; western blot): concentration and time-dependent cleavage of poly (ADP-Ribose) polymerase (PARP)
- cyclin B1 expression (HeLa cells [7]; western blot, 24 and 48 h): increase in cyclin B1 expression
- phosphatase cdc25c expression (HeLa cells [7]; western blot, 24 h): reduction in the expression of phosphatase cdc25c
- phosphorylated cdc2 kinase (HeLa cells [7]; western blot, in particular after 48 h): decrease of the phosphorylated form of cdc2 kinase

SMILES: O=C1C=C(c2ccccc2)Nc2cccc3ccn1c23 [Compound 30, (Z)-2-phenyl-[1,4]diazepino[3,2,1-hi]indol-4(1H)-one]
- IC50 [8]: > 10000 nM

SMILES: CCn1ccc2c3c(=O)cc(-c4ccccc4)[nH]c3ccc21 [Compound 31, 3-ethyl-7-phenyl-3H-pyrrolo[3-2-f] quinolin-9-one]
- GI50 (HeLa; ref [4] and [8]): 11 ± 8 nM
- GI50 (A549 [2]; ref [4] and [8]): 32 ± 1.5 nM
- GI50 (HT-29; ref [4] and [8]): 32 ± 1.2 nM
- GI50 (RS4; 11; ref [4] and [8]): 2 ± 0.3 nM
- GI50 (Jurkat; ref [4] and [8]): 0.5 ± 0.2 nM
- IC50 (bovine brain tubulin): 570 ± 20 nM
- Inhibition of colchicine binding % Inhibition ± SD (tubulin): 73 ± 0.7%
